Columns and labels:
Test in all cases: relative viability (nuclei count vs DMSO), 5 days (fraction); higher = more cells survive
[1] = compound: NCC(=O)Nc1ccc(-n2nc(C(F)(F)F)cc2-c2ccc3c(ccc4ccccc43)c2)cc1 + O=C(CCCCCCC(=O)Nc1ccccc1)NO [Vorinostat] (partner 1 µM)
Outline: (§1)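 Five library-drug doses in √10 steps were combined with a fixed anchor-drug dose, or a single drug was given alone, by pin tool to lung cancer cell lines in 1536-well plates the day after seeding. Nuclei were stained and counted after 5 days. Relative viability is the nuclei count in treated wells over that in vehicle wells, taken as the median of duplicate plates.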

[2] = compound: NCC(=O)Nc1ccc(-n2nc(C(F)(F)F)cc2-c2ccc3c(ccc4ccccc43)c2)cc1 + CC(=O)c1c(C)c2cnc(Nc3ccc(N4CCNCC4)cn3)nc2n(C2CCCC2)c1=O [Palbociclib] (partner 0.5 µM)
Outline: as §1

[3] = compound: C1CSC2=C(C(=O)N1)SC3=C2C=C(C=C3)O [kb NB 142-70] + CCNC(=O)c1noc(-c2cc(C(C)C)c(O)cc2O)c1-c1ccc(CN2CCOCC2)cc1 [Luminespib] (partner 0.01 µM)
Outline: as §1

[4] = compound: NCC(=O)Nc1ccc(-n2nc(C(F)(F)F)cc2-c2ccc3c(ccc4ccccc43)c2)cc1 + COc1cccc2cc(-c3nc([C@H]4CC[C@H](C(=O)O)CC4)n4ncnc(N)c34)[nH]c12 [OSI-027] (partner 0.5 µM)
Outline: as §1

## UMC-11
[1]; first compound 0.02 µM
  relative viability: 0.337
[1]; first compound 0.06325 µM
  relative viability: 0.434
[1]; first compound 0.2 µM
  relative viability: 0.511
[1]; first compound 0.6325 µM
  relative viability: 0.355
[1]; first compound 2 µM
  relative viability: 0.383
[2]; first compound 0.02 µM
  relative viability: 0.301
[2]; first compound 0.06325 µM
  relative viability: 0.305
[2]; first compound 0.2 µM
  relative viability: 0.297
[2]; first compound 0.6325 µM
  relative viability: 0.325
[2]; first compound 2 µM
  relative viability: 0.344
[3]; first compound 0.1 µM
  relative viability: 1.02
[3]; first compound 1 µM
  relative viability: 0.908
[3]; first compound 3.162 µM
  relative viability: 0.494
[4]; first compound 0.02 µM
  relative viability: 0.402
[4]; first compound 0.06325 µM
  relative viability: 0.475
[4]; first compound 0.2 µM
  relative viability: 0.485
[4]; first compound 0.6325 µM
  relative viability: 0.443
[4]; first compound 2 µM
  relative viability: 0.453

— the supplement of paper PMC10307832
